These results are taken from PubChem BioAssay (NCI).

Structures are written as SMILES.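 How tested: cells in 96-well plates exposed to compound for 48 hours at five concentrations. Abbreviation: GI50, concentration required for 50% inhibition of growth. TGI is the concentration that stops growth completely.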 Where only a bound is given, the exact number is not on record here.

Test systems include HCT-116 colon; NCI-H226 lung; KM12 colon; SN12C renal; SK-MEL-28 melanoma; NCI-H522 lung; CCRF-CEM leukemia; HOP-62 NSCLC.
Test in all cases: NCI tumour cell line growth inhibition, 48 h

Turning to `NC(=O)c1sc(-n2cnc3cc(C(F)(F)F)ccc32)cc1OCc1ccccc1Br`, the GI50 is greater than 16 µM in the assay with HCT-116 colon; greater than 17.2 µM in the assay on NCI-H226 lung; greater than 19.9 µM with KM12 colon; 24.6 µM in the assay with SN12C renal; greater than 23.4 µM in the assay on SK-MEL-28 melanoma; greater than 20 µM in the assay with NCI-H522 lung. Also, the GI50 is greater than 19.2 µM in the assay on CCRF-CEM leukemia and 6.49 µM in the assay on HOP-62 NSCLC. Further, the TGI with HCT-116 colon, with NCI-H226 lung, with KM12 colon, in the assay on SN12C renal, in the assay with SK-MEL-28 melanoma and with NCI-H522 lung was greater than 25 µM each time. Moreover, the TGI with CCRF-CEM leukemia is greater than 25 µM; in the assay with HOP-62 NSCLC it was greater than 16.9 µM.

On to `COc1ccc(CCN2CCC(CN(C)Cc3cnn(-c4ccccc4)c3)CC2)cc1`, for which the GI50 is 11.8 µM in the assay on HCT-116 colon; 32.5 µM in the assay with NCI-H226 lung; 15.4 µM in the assay on KM12 colon; 21.3 µM in the assay on SN12C renal; 2.52 µM in the assay on SK-MEL-28 melanoma; 4.54 µM with NCI-H522 lung. Moreover, the GI50 in the assay with CCRF-CEM leukemia is 21 µM; in the assay on HOP-62 NSCLC, 15.4 µM. Besides, the TGI was 25.6 µM with HCT-116 colon; greater than 100 µM with NCI-H226 lung; 30.8 µM in the assay with KM12 colon; greater than 100 µM with SN12C renal; 7.53 µM with SK-MEL-28 melanoma; 19 µM in the assay with NCI-H522 lung. In addition, the TGI was found to be 78.6 µM in the assay on CCRF-CEM leukemia and 35.6 µM in the assay on HOP-62 NSCLC.

`O=C1N(Cc2ccccc2Cl)c2ccccc2C12NN=C(c1cccc(Cl)c1)S2` (stereo not given): the GI50 in the assay with HCT-116 colon is 1.62 µM; with NCI-H226 lung, 1.49 µM; in the assay on KM12 colon, 1.82 µM; with SN12C renal it was 1.91 µM; in the assay on SK-MEL-28 melanoma, 1.86 µM; in the assay on NCI-H522 lung, 1.72 µM. For the same molecule, the GI50 was 1.86 µM with CCRF-CEM leukemia and 1.55 µM in the assay with HOP-62 NSCLC. Moreover, the TGI is 2.98 µM in the assay on HCT-116 colon; 2.86 µM with NCI-H226 lung; 3.79 µM in the assay on KM12 colon; 3.92 µM in the assay with SN12C renal; 3.57 µM in the assay with SK-MEL-28 melanoma; 3.48 µM in the assay on NCI-H522 lung. The TGI worked out at 4.93 µM in the assay on CCRF-CEM leukemia and 2.89 µM with HOP-62 NSCLC.

Consider `CCN1C(=NCCO)NS(=O)(=O)c2ccccc21`, for which the TGI in the assay with HCT-116 colon, with NCI-H226 lung, in the assay with KM12 colon, in the assay with SN12C renal, with SK-MEL-28 melanoma and in the assay on NCI-H522 lung was greater than 100 µM throughout. For the same molecule, the TGI in the assay with CCRF-CEM leukemia and with HOP-62 NSCLC was greater than 100 µM throughout.

`CC(C)(C)OC(=O)NCc1cccc(N=C=S)c1`: the GI50 with HCT-116 colon is 18 µM; in the assay with NCI-H226 lung it was 19.1 µM; with KM12 colon, 16.5 µM; in the assay with SN12C renal it was 22.1 µM; in the assay on SK-MEL-28 melanoma, 16.9 µM; in the assay with NCI-H522 lung it was 17.4 µM. Besides, the results for the GI50 in the assay on CCRF-CEM leukemia and in the assay on HOP-62 NSCLC were 21 µM and 21.8 µM, respectively. The TGI in the assay on HCT-116 colon stood at 36 µM; with NCI-H226 lung, 51.4 µM; with KM12 colon it was 32.8 µM; in the assay with SN12C renal, 60.3 µM; in the assay on SK-MEL-28 melanoma it was 37.7 µM; in the assay on NCI-H522 lung, 44.1 µM. Also, the TGI in the assay with CCRF-CEM leukemia came to 55.9 µM; with HOP-62 NSCLC, 55.8 µM.

Regarding `COC(=O)[C@H](Cc1cn(C)cn1)NC(=O)[C@H](C)NC(=O)Nc1cc(C(F)(F)F)cc(C(F)(F)F)c1`, the GI50 in the assay with HCT-116 colon, in the assay with NCI-H226 lung, with KM12 colon, in the assay on SN12C renal, in the assay on SK-MEL-28 melanoma and with NCI-H522 lung was greater than 10 µM throughout. The GI50 with CCRF-CEM leukemia and in the assay on HOP-62 NSCLC was greater than 10 µM each time. Also, the TGI in the assay with HCT-116 colon, in the assay with NCI-H226 lung, with KM12 colon, in the assay with SN12C renal, with SK-MEL-28 melanoma and in the assay with NCI-H522 lung was greater than 10 µM in each case. The TGI with CCRF-CEM leukemia and in the assay on HOP-62 NSCLC was greater than 10 µM throughout.

For the molecule `C=Cn1c([N+](=O)[O-])cnc1/C=C/c1ccc(C(=O)OCCN2CCOCC2)cc1`, the TGI in the assay with HCT-116 colon, in the assay with NCI-H226 lung, in the assay with KM12 colon, in the assay with SN12C renal, in the assay on SK-MEL-28 melanoma and in the assay with NCI-H522 lung was greater than 100 µM in each case. Besides, the TGI in the assay with CCRF-CEM leukemia and in the assay with HOP-62 NSCLC was greater than 100 µM each time.

Regarding `COc1cc2c(c(OC)c1OC)-c1ccc(N=NC(N)=S)c(=O)cc1[C@@H](NC(C)=O)CC2`, the GI50 in the assay on HCT-116 colon is 0.396 µM; with NCI-H226 lung, 2.01 µM; in the assay with KM12 colon it was 0.394 µM; in the assay on SN12C renal, 1.52 µM; in the assay with SK-MEL-28 melanoma, 0.808 µM; in the assay with NCI-H522 lung, 0.354 µM. For the same molecule, the GI50 in the assay on CCRF-CEM leukemia is 0.535 µM; in the assay with HOP-62 NSCLC it was 1.8 µM. In addition, the TGI is greater than 29.4 µM in the assay on NCI-H226 lung; greater than 100 µM in the assay with SN12C renal; greater than 100 µM with SK-MEL-28 melanoma; greater than 100 µM with CCRF-CEM leukemia; greater than 100 µM in the assay with HOP-62 NSCLC.

`Cc1nc2ccccc2nc1N=Nc1ccccc1`: the GI50 in the assay on HCT-116 colon is 31.1 µM; in the assay on NCI-H226 lung it was 24.6 µM; in the assay with KM12 colon, 11.9 µM; with SN12C renal, 30 µM; in the assay with SK-MEL-28 melanoma it was 26 µM; in the assay with NCI-H522 lung it was 20.4 µM. For the same molecule, the figures for the GI50 in the assay on CCRF-CEM leukemia and in the assay on HOP-62 NSCLC were 25 µM and 28.5 µM, respectively. Moreover, the TGI is greater than 100 µM in the assay with HCT-116 colon; greater than 100 µM with NCI-H226 lung; 93.5 µM in the assay on KM12 colon; greater than 100 µM in the assay on SN12C renal; greater than 100 µM in the assay on SK-MEL-28 melanoma; 63.1 µM in the assay on NCI-H522 lung. Further, the TGI in the assay on CCRF-CEM leukemia and with HOP-62 NSCLC was greater than 100 µM throughout.

For `O=C1CC/C(=C/COc2cc(=O)oc3ccccc23)O1`, the GI50 was 6.95 µM in the assay with HCT-116 colon; 17.9 µM in the assay with NCI-H226 lung; 7.14 µM in the assay on KM12 colon; 14.7 µM in the assay on SN12C renal; 14 µM in the assay on SK-MEL-28 melanoma; 1.73 µM with NCI-H522 lung. The GI50 is 3.1 µM in the assay on CCRF-CEM leukemia and 14.3 µM in the assay with HOP-62 NSCLC. In addition, the TGI in the assay with HCT-116 colon amounted to 19.7 µM; in the assay with NCI-H226 lung, 73.5 µM; in the assay with KM12 colon, 25.1 µM; with SN12C renal, 36 µM; in the assay with SK-MEL-28 melanoma, 28.5 µM; in the assay with NCI-H522 lung it was 4.36 µM. The results for the TGI with CCRF-CEM leukemia and with HOP-62 NSCLC were 21.5 µM and 31.1 µM, respectively.

In the case of `Cn1cc(C2=C(Nc3ccccc3)C(=O)NC2=O)c2ccccc21`, the GI50 was 16.4 µM in the assay with HCT-116 colon; greater than 25 µM in the assay on NCI-H226 lung; 17 µM in the assay with KM12 colon; greater than 25 µM in the assay with SN12C renal; greater than 25 µM in the assay with SK-MEL-28 melanoma; 24.6 µM in the assay on NCI-H522 lung. Further, the GI50 in the assay with CCRF-CEM leukemia and in the assay with HOP-62 NSCLC was greater than 25 µM each time. Moreover, the TGI with HCT-116 colon, in the assay with NCI-H226 lung, in the assay with KM12 colon, with SN12C renal, in the assay with SK-MEL-28 melanoma and in the assay on NCI-H522 lung was greater than 25 µM throughout. Further, the TGI in the assay on CCRF-CEM leukemia and with HOP-62 NSCLC was greater than 25 µM throughout.

Regarding `CC1(C)O[C@@H]2C[C@H]3[C@@H]4C[C@H](F)C5=CC(=O)C=C[C@]5(C)[C@@]4(F)[C@@H](O)C[C@]3(C)[C@]2(C(=O)CO)O1`, the TGI in the assay with HCT-116 colon, in the assay with NCI-H226 lung, in the assay on KM12 colon, in the assay with SN12C renal, in the assay with SK-MEL-28 melanoma and with NCI-H522 lung was greater than 100 µM throughout. In addition, the TGI in the assay with CCRF-CEM leukemia and in the assay on HOP-62 NSCLC was greater than 100 µM each time.

On to `O=C(CC1C=Cc2ccccc2N1C(=O)c1ccccc1)c1ccccc1` (stereo not given), for which the TGI in the assay on HCT-116 colon was 45.6 µM; in the assay with NCI-H226 lung it was 99.9 µM; in the assay on KM12 colon, 61.8 µM; in the assay on SN12C renal, 45.9 µM; in the assay with SK-MEL-28 melanoma it was greater than 100 µM; in the assay with NCI-H522 lung, 53.2 µM. Moreover, the TGI in the assay with CCRF-CEM leukemia and in the assay on HOP-62 NSCLC was greater than 100 µM each time.

Consider `Cc1nc2cc(Nc3nc(Nc4ccc(F)cc4)nc(N4CCOCC4)n3)ccc2n1Cc1ccccc1`, for which the GI50 with HCT-116 colon was 1.98 µM; with NCI-H226 lung, 5.79 µM; in the assay with KM12 colon, 3.77 µM; in the assay on SN12C renal it was 4.63 µM; with SK-MEL-28 melanoma, 3.17 µM; in the assay with NCI-H522 lung, 4.1 µM. Besides, the GI50 in the assay with CCRF-CEM leukemia was 2.75 µM; in the assay with HOP-62 NSCLC, 9.06 µM. The TGI in the assay with HCT-116 colon came to 4 µM; in the assay on NCI-H226 lung, 24.2 µM; in the assay with KM12 colon, 14.2 µM; with SN12C renal, 27.4 µM; with SK-MEL-28 melanoma it was 9.6 µM; in the assay on NCI-H522 lung it was 18.9 µM. Also, the TGI amounted to 8.2 µM in the assay with CCRF-CEM leukemia and 24 µM in the assay on HOP-62 NSCLC.

For `Cc1ccc(-n2nnnc2-c2cnc(N3CCOCC3)nc2-c2cccc(C(F)(F)F)c2)cc1`, the GI50 was 1.35 µM with HCT-116 colon; 1.51 µM in the assay with NCI-H226 lung; 1.26 µM with KM12 colon; 2.53 µM with SN12C renal; 14.4 µM in the assay with SK-MEL-28 melanoma; 1.89 µM in the assay on NCI-H522 lung. Moreover, the values for the GI50 in the assay with CCRF-CEM leukemia and with HOP-62 NSCLC were 1.1 µM and 1.44 µM, respectively. For the same molecule, the TGI with HCT-116 colon was 5.08 µM; in the assay on NCI-H226 lung, 10.8 µM; with KM12 colon, 3.59 µM; in the assay on SN12C renal, greater than 13.9 µM; in the assay with SK-MEL-28 melanoma it was greater than 50 µM; in the assay with NCI-H522 lung it was greater than 12.9 µM. For the same molecule, the TGI with CCRF-CEM leukemia was found to be 2.55 µM; in the assay on HOP-62 NSCLC, 4.9 µM.
